The nature of data set [1]: Cytotoxicity against African green monkey MARC145 cells by CCK8 assay. The data set is classed as cell-based. Conditions: chlorocebus aethiops.
Data set [2] concerns MARC145. As to the kind of experiment: Suppression of Hsc70 expression in African green monkey Marc145 cells assessed as Hsc70 mRNA destabilization by measuring half life at 20 uM (reference value: 6.51 hrs). Conditions: Chlorocebus aethiops. In kind it is functional, cell-based.
Data set [3] is described as follows: Selectivity index, ratio of CC50 for cytotoxicity against African green monkey MARC145 cells to EC50 for antiviral activity against PEDV 85-7. The data set is classed as toxicity, cell-based. The following applies: read-out: Ratio CC50/EC50.
The test system of data set [4] is Porcine epidemic diarrhea virus. Description: Antiviral activity against PEDV 85-7 infected in Marc145 cells assessed as down regulation of Hsc70 mRNA expression at 10 uM after 24 hrs by qPCR analysis. In kind it is functional, organism-based.
For data set [5] the test system is unchanged. Description: Antiviral activity against PEDV 85-7 infected in Marc145 cells assessed as reduction in PEDV-N protein level at 10 uM by Western blotting analysis. In kind it is functional, organism-based.
For data set [6] the test system is unchanged. As to the kind of experiment: Antiviral activity against PEDV 85-7 infected in Marc145 cells assessed as inhibition of viral transcription after 24 hrs by qPCR analysis. The data set is classed as functional, organism-based. The following applies: 85-7, MARC145, 24 h.
The test system is the same in data set [7]. As to the kind of experiment: Antiviral activity against PEDV 85-7 infected in Marc145 cells assessed as inhibition of viral replication by measuring reduction in mRNA level at 10 uM after 24 hrs by qPCR analysis. The data set is classed as functional. Details: scale not given: the % may be the effect or the level left.
For data set [8] the test system is unchanged. As to the kind of experiment: Antiviral activity against PEDV 85-7 infected in Marc145 cells assessed as reduction in viral virion at 20 uM by plaque assay. In kind it is functional, organism-based.
For data set [9] the test system is unchanged. As to the kind of experiment: Antiviral activity against PEDV (NK-2) inoculated in piglets assessed as reduction in viral replication in intestine at 50 mg/kg, po administered every 24 hrs for 72 hrs by immunofluorescence assay. The data set is classed as functional, organism-based.
For data set [10] the test system is unchanged. Description: Antiviral activity against PEDV (NK-2) inoculated in piglets assessed as reduction in mortality at 50 mg/kg, po administered every 24 hrs for 72 hrs. The data set is classed as functional, organism-based.
Data set [11] shares this test system. As to the kind of experiment: Antiviral activity against PEDV 85-7 infected in Marc145 cells assessed as reduction in PDEV protein level at 10 uM after 24 hrs by indirect immunofluorescence assay. In kind it is functional, organism-based.
Data set [12] has the same test system. Description: Antiviral activity against PEDV (NK-2) inoculated in piglets assessed as reduction in fusion of numerous villi at 50 mg/kg, po administered every 24 hrs for 72 hrs by HE staining based microscopic analysis. The data set is classed as functional, organism-based.
Data set [13] shares this test system. Description: Antiviral activity against PEDV (NK-2) inoculated in piglets assessed as reduction in swelling sloughing and attenuation of villi at 50 mg/kg, po administered every 24 hrs for 72 hrs by HE staining based microscopic analysis. In kind it is functional, organism-based.
The test system is the same in data set [14]. Description: Antiviral activity against PEDV (NK-2) inoculated in piglets assessed as reduction in multifocal diffusion of villous atrophy at 50 mg/kg, po administered every 24 hrs for 72 hrs by HE staining based microscopic analysis. The data set is classed as functional, organism-based.
The test system is the same in data set [15]. As to the kind of experiment: Antiviral activity against PEDV 85-7 infected in Marc145 cells expressing pEGFP-N1/Hsc70 protein assessed as decrease in viral RNA level at 20 uM after 24 hrs by qPCR analysis. The data set is classed as functional.
Data set [16] shares this test system. Description: Antiviral activity against PEDV 85-7 infected in Marc145 cells assessed as suppression of viral assembly. In kind it is functional, organism-based.
Data set [17] has the same test system. Description: Antiviral activity against PEDV 85-7 infected in Marc145 cells expressing pEGFP-N1/Hsc70 protein assessed as decrease in PEDV-N-protein level at 20 uM after 24 hrs […]. In kind it is functional.
For data set [18] the test system is unchanged. Description: Antiviral activity against PEDV 85-7 infected in Marc145 cells assessed as reduction in PEDV-N protein level by Western blotting analysis. In kind it is functional, organism-based. The following applies: dose 0.1-10 µM.
For data set [19] the test system is unchanged. As to the kind of experiment: Antiviral activity against PEDV 85-7 infected in Marc145 cells assessed as down regulation of Hsc70 protein expression after 24 hrs by Western blotting analysis. In kind it is functional, organism-based. Conditions: dose 0.1-10 µM.

Each structure is given as a SMILES string. Active and inactive are the calls of the source. The rule behind the calls is not given here. Where only a bound is given, the exact number is not on record here.

Regarding `CCc1cccc2c1N(C)Cc1cc(OC(C)=O)c(OC(C)=O)cc1-2`, the 50% cytotoxic concentration (CC50) in [1] is greater than 100 µM. Moreover, the T1/2 in [2] was 2.61 h. Also, the selectivity ratio in data set [3] is greater than 30. The result in data set [4] and in [5] was Active. Besides, the 50% effective concentration (EC50) in data set [6] turned out to be 3.26 µM. In addition, the Activity in data set [7] is on record as 70%.

Take `CCc1cccc2c1N(C)Cc1cc(OC)c(OC)cc1-2`: the result in data set [8], in [9], in data set [10], in data set [11], in [4] and in data set [5] was Active. The result in data set [12], in data set [13] and in data set [14] was Active. In data set [1], this compound yielded a CC50 greater than 100 µM. Besides, the T1/2 in data set [2] was determined as 2.31 h. Further, in [3], the selectivity ratio was greater than 53. In addition, the EC50 in data set [6] was found to be 1.89 µM. In [7], the Activity is listed as 70%.

`CCc1cccc2c1N(C)Cc1cc(OCc3cc(C)n(C)n3)c(OCc3cc(C)n(C)n3)cc1-2`: the outcome in data set [8], in data set [9], in [10], in [11], in [4] and in [16] was Active. For the same compound, the result in data set [5], in data set [12], in [13] and in data set [14] was Active. For the same compound, the CC50 in data set [1] was greater than 100 µM. In addition, the T1/2 in [2] is 1.84 h. Further, the selectivity ratio in [3] is greater than 134. Besides, the results for the “fold change (FC)” value in [15] and in data set [17] were 29.3 and 20.5, respectively. For the same compound, the EC50 in data set [6] was 0.72 µM. Moreover, the values for the Activity in data set [7], in [18] and in [19] were 70%, “Dose-Dependent Effect” and “Dose-Dependent Effect”, respectively.
